Among the data in PubChem BioAssay (NCI) are TGI and GI50 values, retold here.

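Values below derive from 48-hour exposures of cells grown in 96-well plates, with endpoints linearly interpolated between the two concentrations bracketing the appropriate inhibition level. Abbreviation: GI50, concentration required for 50% inhibition of growth. TGI is the concentration that stops growth completely.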 A value given as a limit tells only on which side of the number the result lay.

Some test systems named below: IGROV1 ovarian; MOLT-4 leukemia; OVCAR-3 ovarian; HT29 colon; MALME-3M melanoma; ACHN renal; M14 melanoma; U251 CNS; CCRF-CEM leukemia; EKVX NSCLC.
Holding throughout (assay): NCI anticancer screen, dose series, 48 h

For the molecule `Cc1cc(N(CCOS(C)(=O)=O)CCOS(C)(=O)=O)ccc1C=Nc1ccc(-c2nc(Cc3ccccc3)sc2C)cc1`, the TGI in the test with IGROV1 ovarian was 28 µM; with MOLT-4 leukemia it was 22.4 µM; in the test with OVCAR-3 ovarian, 19.6 µM; in the test with HT29 colon, 21.4 µM; in the test on MALME-3M melanoma it was 26.8 µM; in the test with ACHN renal it was 3.51 µM. Further, the TGI with M14 melanoma stood at 20.7 µM; with U251 CNS, 22.8 µM; in the test on CCRF-CEM leukemia, 24.3 µM; in the test on EKVX NSCLC, 15.8 µM.

`CCCCCCCCCCCCCC(=O)OC1CC(=O)OC1CO` (stereo not given): the TGI is above 100 µM in the test with IGROV1 ovarian; 52.1 µM in the test on MOLT-4 leukemia; above 100 µM in the test with OVCAR-3 ovarian; above 100 µM in the test on HT29 colon; above 100 µM with MALME-3M melanoma; above 100 µM with ACHN renal. Also, the TGI was 39.7 µM in the test on M14 melanoma, above 100 µM with U251 CNS, 74.4 µM in the test with CCRF-CEM leukemia and above 100 µM with EKVX NSCLC.

With `N#CC1(Cc2ccc(N)cc2)c2ccccc2C=CN1C(=O)c1ccccc1` (stereo not given), the TGI in the test on IGROV1 ovarian, in the test on MOLT-4 leukemia, with OVCAR-3 ovarian, in the test with HT29 colon, in the test on MALME-3M melanoma and in the test on ACHN renal was above 100 µM throughout. In addition, the TGI in the test on M14 melanoma, in the test on U251 CNS, with CCRF-CEM leukemia and in the test with EKVX NSCLC was above 100 µM in each case.

Take `CCCCN(CCCC)C(=O)C(=O)C(C#N)c1ccc(C)cc1` (stereo not given): the TGI in the test with IGROV1 ovarian, in the test on MOLT-4 leukemia, with OVCAR-3 ovarian, in the test on HT29 colon, with MALME-3M melanoma and in the test with ACHN renal was above 100 µM throughout. Further, the TGI in the test with M14 melanoma, in the test with U251 CNS, with CCRF-CEM leukemia and with EKVX NSCLC was above 100 µM each time.

Take `CC1=C(C(=O)Nc2ccc3[nH]ncc3c2)C(c2ccc3ccccc3c2)CC(=O)N1` (stereo not given): the GI50 in the test on IGROV1 ovarian was 8.08 µM; in the test with MOLT-4 leukemia, above 25 µM; with OVCAR-3 ovarian it was above 25 µM; in the test on HT29 colon, 20 µM; in the test on MALME-3M melanoma, 11 µM; in the test on ACHN renal, above 25 µM. The GI50 was above 25 µM in the test with M14 melanoma, above 25 µM with U251 CNS, above 25 µM in the test on CCRF-CEM leukemia and above 17.9 µM with EKVX NSCLC. Further, the TGI with IGROV1 ovarian, with MOLT-4 leukemia, in the test with OVCAR-3 ovarian, in the test with HT29 colon, with MALME-3M melanoma and in the test on ACHN renal was above 25 µM in each case. In addition, the TGI in the test on M14 melanoma, in the test on U251 CNS, with CCRF-CEM leukemia and in the test with EKVX NSCLC was above 25 µM throughout.

Turning to `N=C1CSC2=NC3=C(CCC/C3=C\c3ccccc3)C(c3ccccc3)N12` (stereo not given), the TGI stood at 20.1 µM in the test with IGROV1 ovarian; 8.03 µM in the test on MOLT-4 leukemia; 8.24 µM with OVCAR-3 ovarian; 11.5 µM in the test with HT29 colon; 39.3 µM in the test on MALME-3M melanoma; 24.8 µM in the test on ACHN renal. For the same molecule, the TGI in the test with M14 melanoma came to 13 µM; in the test with U251 CNS, 13.6 µM; in the test on CCRF-CEM leukemia, 8.61 µM; in the test with EKVX NSCLC, 9.54 µM.

As for `COc1cc(OC)cc(-c2ccc(-c3ccc(C(=N)N)o3)o2)c1`, the GI50 with IGROV1 ovarian was 2.97 µM; in the test with MOLT-4 leukemia it was 2.44 µM; with OVCAR-3 ovarian it was 3.26 µM; in the test with HT29 colon, 2.77 µM; with MALME-3M melanoma, 2.04 µM; with ACHN renal, 2.05 µM. For the same molecule, the GI50 in the test with M14 melanoma was 2.07 µM; in the test on U251 CNS, 2.45 µM; with CCRF-CEM leukemia, 2.72 µM; in the test on EKVX NSCLC, 5.09 µM. Also, the TGI with IGROV1 ovarian is 10.4 µM; with MOLT-4 leukemia, 6.7 µM; in the test with OVCAR-3 ovarian, 11.3 µM; with HT29 colon, 9.04 µM; in the test on MALME-3M melanoma, 4.21 µM; with ACHN renal, 4.22 µM. Further, the TGI in the test with M14 melanoma was 4.36 µM; with U251 CNS, 5.91 µM; with CCRF-CEM leukemia, 7.72 µM; in the test with EKVX NSCLC it was 18.5 µM.

With `N#Cc1ccc(C#Cc2ccccc2C#CCCCCO)cc1`, the GI50 is 13.6 µM in the test on IGROV1 ovarian; 17.8 µM in the test with MOLT-4 leukemia; 19.9 µM with OVCAR-3 ovarian; 46 µM with HT29 colon; 21 µM with MALME-3M melanoma; 19.1 µM in the test with ACHN renal. Further, the GI50 was 17.3 µM with M14 melanoma, 14.5 µM in the test with U251 CNS, 14.8 µM with CCRF-CEM leukemia and 17.9 µM in the test with EKVX NSCLC. Moreover, the TGI is 27.6 µM with IGROV1 ovarian; 37.7 µM in the test on MOLT-4 leukemia; 39.6 µM in the test with OVCAR-3 ovarian; above 100 µM in the test with HT29 colon; 38.7 µM in the test with MALME-3M melanoma; 33.2 µM in the test with ACHN renal. The TGI was 31.5 µM in the test on M14 melanoma, 27.5 µM with U251 CNS, 29.1 µM in the test on CCRF-CEM leukemia and 35.3 µM in the test on EKVX NSCLC.

On to `COc1ccc2ccc3c(c2c1)CN1CCc2cc(OC)c(OC)cc2C1C3` (stereo not given), for which the TGI with IGROV1 ovarian, in the test on MOLT-4 leukemia, in the test on OVCAR-3 ovarian, in the test on HT29 colon, in the test on MALME-3M melanoma and with ACHN renal was above 100 µM in each case. The TGI in the test on M14 melanoma, in the test on U251 CNS, in the test on CCRF-CEM leukemia and with EKVX NSCLC was above 100 µM each time.

Regarding `CCOc1ccc2c(c1)[n+]([O-])c(S(=O)(=O)c1ccc(C)cc1)c(N)[n+]2[O-]`, the TGI in the test with IGROV1 ovarian, in the test on MOLT-4 leukemia, with OVCAR-3 ovarian, with HT29 colon, with MALME-3M melanoma and in the test with ACHN renal was above 100 µM throughout. Also, the TGI with M14 melanoma, with U251 CNS, in the test with CCRF-CEM leukemia and with EKVX NSCLC was above 100 µM throughout.

Take `Clc1ccc(C2N3CCCCC3[C@@H]3c4[nH]c5ccccc5c4CCN23)cc1` (stereo not given in full): the TGI was above 100 µM in the test with IGROV1 ovarian; above 100 µM in the test on MOLT-4 leukemia; above 100 µM in the test on OVCAR-3 ovarian; 49.9 µM in the test on HT29 colon; 90.4 µM in the test with MALME-3M melanoma; above 100 µM in the test with ACHN renal. Also, the TGI in the test on M14 melanoma, in the test on U251 CNS, in the test on CCRF-CEM leukemia and with EKVX NSCLC was above 100 µM throughout.
